We go through 20 molecules from patent US20210395313A1, “PEPTIDE PAC1 ANTAGONISTS” (AMGEN INC., priority 2017, published 2021).

The target of one experiment is T1, human PAC1 receptor (Homo sapiens, UniProt P41586).
T1 construct: SHSY-5Y (human neuroblastoma cell line) and RG-2 (rat glioma cell line) cells endogenously express human and rat PAC1 receptors, respectively; endogenous in cells; host or cells: SHSY-5Y human neuroblastoma cells
T1 sequence (P41586 21-468): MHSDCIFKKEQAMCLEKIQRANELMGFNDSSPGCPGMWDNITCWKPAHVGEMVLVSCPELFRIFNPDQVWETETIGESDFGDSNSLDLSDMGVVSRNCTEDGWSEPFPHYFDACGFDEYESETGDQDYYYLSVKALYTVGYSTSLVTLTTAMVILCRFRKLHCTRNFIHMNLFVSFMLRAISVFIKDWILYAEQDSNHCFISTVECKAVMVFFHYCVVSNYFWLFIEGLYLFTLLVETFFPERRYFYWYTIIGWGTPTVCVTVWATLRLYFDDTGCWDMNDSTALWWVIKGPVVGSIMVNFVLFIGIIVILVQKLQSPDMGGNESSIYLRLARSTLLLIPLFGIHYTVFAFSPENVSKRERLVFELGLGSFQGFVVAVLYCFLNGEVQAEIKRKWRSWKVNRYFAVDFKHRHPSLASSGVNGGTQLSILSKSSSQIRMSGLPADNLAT
Description: LANCE Ultra cAMP accumulation antagonist assay in SHSY-5Y cells.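 Further: inhibition of cAMP accumulation evoked by PAC1 agonist at its EC80 in SHSY-5Y cells endogenously expressing receptor, 30 min preincubation then 15 min agonist, TR-FRET readout.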 Format: cell-based. (Time-resolved FRET reads energy transfer from a long-lived donor to a nearby acceptor.)

In the next experiment the target is T2, rat PAC1 receptor (Rattus norvegicus, UniProt P32215).
T2 construct: SHSY-5Y (human neuroblastoma cell line) and RG-2 (rat glioma cell line) cells endogenously express human and rat PAC1 receptors, respectively; endogenous in cells; host or cells: RG-2 rat glioma cells
T2 sequence (P32215 20-523): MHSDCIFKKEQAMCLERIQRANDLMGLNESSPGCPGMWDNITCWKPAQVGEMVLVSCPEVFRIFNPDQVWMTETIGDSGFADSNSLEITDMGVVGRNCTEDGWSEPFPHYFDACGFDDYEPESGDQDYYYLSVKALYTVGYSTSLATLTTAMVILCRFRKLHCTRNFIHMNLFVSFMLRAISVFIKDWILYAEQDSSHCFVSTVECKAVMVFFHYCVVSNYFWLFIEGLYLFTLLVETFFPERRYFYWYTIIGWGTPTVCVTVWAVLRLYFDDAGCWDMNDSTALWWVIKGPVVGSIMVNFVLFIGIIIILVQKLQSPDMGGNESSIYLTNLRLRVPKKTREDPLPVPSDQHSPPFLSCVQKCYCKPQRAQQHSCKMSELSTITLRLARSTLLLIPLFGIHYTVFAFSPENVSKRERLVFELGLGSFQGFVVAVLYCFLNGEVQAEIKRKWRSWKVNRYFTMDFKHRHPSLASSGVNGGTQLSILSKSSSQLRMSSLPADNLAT
The experiment is described as follows: LANCE Ultra cAMP accumulation antagonist assay in RG-2 cells.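 Further: RG-2 rat glioma cells endogenously expressing PAC1, test peptide preincubated 30 min, then PAC1 agonist added at its EC80 for 15 min, cAMP accumulation read by LANCE Ultra.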 Format: cell-based.

Where a SMILES comes first, the peptide text is derived from it. Bridges are numbered along the chain shown (N, C = ends). Where no end group is shown, it is not given here.

With `CC[C@H](C)[C@H](NC(=O)[C@H](C)NC(=O)[C@H](CCCCN)NC(=O)[C@H](CCCNC(=N)N)NC(=O)[C@H](Cc1ccccc1)NC(=O)[C@H](CCC(N)=O)NC(=O)[C@@H]1CSSC[C@H](N)C(=O)N[C@@H](CC(=O)O)C(=O)N[C@@H](C)C(=O)N[C@@H]([C@@H](C)O)C(=O)N1)C(=O)N[C@@H](CC(=O)O)C(=O)N[C@@H](CC(=O)O)C(=O)N[C@H]1CSSC[C@@H](C(=O)N[C@@H](CCSC)C(=O)N[C@@H](CCCCN)C(=O)N[C@@H](CCC(N)=O)C(=O)N[C@@H](CCCCN)C(=O)N[C@@H](CCCCN)C(=O)N[C@@H](CCCCN)C(=O)N[C@@H](CCC(=O)O)C(=O)N[C@@H](Cc2c[nH]c3ccccc23)C(=O)N[C@@H](CCCCN)C(=O)N[C@@H](C)C(=O)NCC(=O)N[C@@H](Cc2c[nH]cn2)C(=O)O)NC(=O)[C@H](C)NC(=O)[C@H](CCCCN)NC(=O)[C@H](Cc2ccccc2)NC(=O)[C@H](C(C)C)NC(=O)[C@H](CO)NC(=O)[C@H](CO)NC(=O)[C@H](Cc2c[nH]cn2)NC(=O)[C@H](Cc2c[nH]cn2)NC(=O)[C@H](C)NC(=O)[C@H](CCC(N)=O)NC(=O)[C@H](CCCCN)NC(=O)[C@H](C)NC1=O` [compound 26] (H-CDATCQFRKAIDDCAKQAHHSSVFKACMKQKKKEWKAGH-OH; disulfide 1-5, 14-27), the IC50 on human PAC1 receptor and at rat PAC1 receptor was 0.01 to 1 nM each time.

For the molecule `CC[C@H](C)[C@H](NC(=O)[C@H](C)NC(=O)[C@H](CCCCN)NC(=O)[C@H](CCCNC(=N)N)NC(=O)[C@H](Cc1ccccc1)NC(=O)[C@H](CCC(N)=O)NC(=O)[C@@H]1CSSC[C@H](N)C(=O)N[C@@H](CC(=O)O)C(=O)N[C@@H](C)C(=O)N[C@@H]([C@@H](C)O)C(=O)N1)C(=O)N[C@@H](CC(=O)O)C(=O)N[C@@H](CC(=O)O)C(=O)N[C@H]1CSSC[C@@H](C(=O)N[C@@H](CCSC)C(=O)N[C@@H](CCCCN)C(=O)N[C@@H](CCC(N)=O)C(=O)N[C@@H](CCCCN)C(=O)N[C@@H](CCCCN)C(=O)N[C@@H](CCCCN)C(=O)N[C@@H](CCC(=O)O)C(=O)N[C@@H](Cc2ccccc2)C(=O)N[C@@H](CCCCN)C(N)=O)NC(=O)[C@H](CCC(=O)O)NC(=O)[C@H](CCCCN)NC(=O)[C@H](Cc2ccccc2)NC(=O)[C@H](C(C)C)NC(=O)[C@H](CO)NC(=O)[C@H](CC(N)=O)NC(=O)[C@@H]2CCCN2C(=O)[C@H](C(C)C)NC(=O)[C@H](CC(N)=O)NC(=O)[C@H](CO)NC(=O)[C@H](Cc2c[nH]cn2)NC(=O)[C@H](Cc2c[nH]cn2)NC(=O)[C@H](C)NC(=O)[C@H](CCC(N)=O)NC(=O)[C@H](CCCCN)NC(=O)[C@H](CCC(N)=O)NC1=O` [compound 311] (H-CDATCQFRKAIDDCQKQAHHSNVPNSVFKECMKQKKKEFK-NH2; disulfide 1-5, 14-31), the IC50 against human PAC1 receptor was over 100 nM; on rat PAC1 receptor, 1 to 100 nM.

For the molecule “CDATCQFRKAIDDCARQAHHSNVPGSVFKACFKQKKKEWKAGH (disulfide 1-5, 14-31) [compound 39]”, the IC50 on human PAC1 receptor and against rat PAC1 receptor was 0.01 to 1 nM each time.

For the molecule “CDATCQFRKAIDDCFWLASHSNVPGSVWKACMKQKKKEFKAG-NH2 (disulfide 1-5, 14-31) [compound 119]”, the IC50 against human PAC1 receptor and against rat PAC1 receptor was 0.01 to 1 nM in each case.

As to “CDATCQFRKAIDDCQKQAHHSNVPGSVFKACLLQKKKEFKAG-NH2 (disulfide 1-5, 14-31) [compound 100]”, the IC50 at human PAC1 receptor and on rat PAC1 receptor was 1 to 100 nM throughout.

On to `CC[C@H](C)[C@H](NC(=O)[C@H](C)NC(=O)[C@H](CCCCN)NC(=O)[C@H](CCCNC(=N)N)NC(=O)[C@H](Cc1ccccc1)NC(=O)[C@H](CCC(N)=O)NC(=O)[C@@H]1CSSC[C@H](NC(C)=O)C(=O)N[C@@H](CC(=O)O)C(=O)N[C@@H](C)C(=O)N[C@@H]([C@@H](C)O)C(=O)N1)C(=O)N[C@@H](CC(=O)O)C(=O)N[C@@H](CC(=O)O)C(=O)N[C@H]1CSSC[C@@H](C(=O)N[C@@H](CCSC)C(=O)N[C@@H](CCCCN)C(=O)N[C@@H](CCC(N)=O)C(=O)N[C@@H](CCCCN)C(=O)N[C@@H](CCCCN)C(=O)N[C@@H](CCCCN)C(=O)N[C@@H](CCC(=O)O)C(=O)N[C@@H](Cc2ccccc2)C(=O)N[C@@H](CCCCN)C(=O)N[C@@H](C)C(N)=O)NC(=O)C(C)(C)NC(=O)[C@H](CCCCN)NC(=O)[C@H](Cc2ccccc2)NC(=O)[C@H](C(C)C)NC(=O)[C@H](CO)NC(=O)CNC(=O)[C@@H]2CCCN2C(=O)[C@H](C(C)C)NC(=O)[C@H](CC(N)=O)NC(=O)[C@H](CO)NC(=O)[C@H](Cc2c[nH]cn2)NC(=O)[C@H](Cc2c[nH]cn2)NC(=O)[C@H](C)NC(=O)[C@H](CCC(N)=O)NC(=O)[C@H](CCCCN)NC(=O)[C@H](CCC(N)=O)NC1=O` [SEQ ID NO 249], for which the IC50 fell in the range of 1 to 100 nM on human PAC1 receptor and 0.01 to 1 nM against rat PAC1 receptor.

Regarding “CDATCFFRKVIDDCYYRSWHSNVPGSVFKACMKQLKKRWQAG-NH2 (disulfide 1-5, 14-31) [compound 70]”, the IC50 on human PAC1 receptor and against rat PAC1 receptor was 1 to 100 nM each time.

For the molecule “CDATCQFRKAIDDCWVQAWHSNVPGSVFKACMKQKKKEFKAG-NH2 (disulfide 1-5, 14-31) [compound 134]”, the IC50 on human PAC1 receptor and at rat PAC1 receptor was 0.01 to 1 nM throughout.

In the case of “CDATCQFRKAIDDCAWFALHSNVPGSVFKACMKQKKKEFKAG-NH2 (disulfide 1-5, 14-31) [compound 91]”, the IC50 against human PAC1 receptor and against rat PAC1 receptor was 0.01 to 1 nM each time.

Take “CDATCFFRKVIDDCQKQAHHSNVPGSVFKACMKQLKKRWQAG-NH2 (disulfide 1-5, 14-31) [compound 125]”: the IC50 was over 100 nM on human PAC1 receptor and 1 to 100 nM against rat PAC1 receptor.

On to “CDATCQFRKAIDDCMWFAWHSNVPGSVFKACMKQKKKEFKAG-NH2 (disulfide 1-5, 14-31) [compound 122]”, for which the half-inhibitory concentration (IC50) on human PAC1 receptor and on rat PAC1 receptor was 0.01 to 1 nM throughout.

As to “GCDATCQFRKAIDDCAKQAHHSNVPGSVFKACMKQKKKEFKAGY (disulfide 2-6, 15-32) [SEQ ID NO 58]”, the IC50 at human PAC1 receptor and at rat PAC1 receptor was 0.01 to 1 nM throughout.

As for “CDATCQFRKAIDDCARQAHHSNVPGSVFKACMKQKKKEWKAGH-NH2 (disulfide 1-5, 14-31) [compound 2]”, the IC50 against human PAC1 receptor and against rat PAC1 receptor was 0.01 to 1 nM throughout.

Consider “CDATCQFRKAIDDCDRQAHHSNVPGSVFKACMKQKKKEWKAN-NH2 (disulfide 1-5, 14-31) [compound 158]”, for which the IC50 against human PAC1 receptor and at rat PAC1 receptor was 0.01 to 1 nM in each case.

Turning to “CDATCQFRKAIDDCWVIAWHSNVPGSVFKACMKQKKKEFKAG-NH2 (disulfide 1-5, 14-31) [compound 130]”, the IC50 was 0.01 to 1 nM at human PAC1 receptor and under 0.01 nM at rat PAC1 receptor.

Regarding “CDATCQFRKAIDDCDRQAHHSNVPGSVFKACMKQKKKEWKAGH (disulfide 1-5, 14-31) [compound 167]”, the half-maximal inhibitory concentration (IC50) at human PAC1 receptor and at rat PAC1 receptor was 0.01 to 1 nM each time.

For the molecule “CDATCQFRKAIDDCARQAHHSNVPGSVFKLCMKQKKKEWKAGH (disulfide 1-5, 14-31) [compound 23]”, the IC50 against human PAC1 receptor was 0.01 to 1 nM; on rat PAC1 receptor it was under 0.01 nM.

Regarding “CDATCQFRKAIDDCQKQAHHSNVPGSVFKACMKQKKKEFKAGHHHHHH (disulfide 1-5, 14-31) [compound 160]”, the values for the IC50 on human PAC1 receptor and against rat PAC1 receptor were 1 to 100 nM and 0.01 to 1 nM, respectively.

As for “CDATCQFRKAIDDCQRQAHHSNVPGNSVFKECMKQKKKEFK-NH2 (disulfide 1-5, 14-32) [compound 288]”, the IC50 against human PAC1 receptor and against rat PAC1 receptor was 1 to 100 nM in each case.

“CDATCQFRKAIDDCYYYAMHSNVPGSVWKACLKQKKKEFKAG-NH2 (disulfide 1-5, 14-31) [compound 78]”: the IC50 against human PAC1 receptor and against rat PAC1 receptor was 0.01 to 1 nM in each case.

Usually IC50 stands for the midpoint of a concentration-inhibition curve. Lower therefore signals greater potency.
